This is an account of results in ChEMBL document CHEMBL1129342, “Structure-based design of novel HIV protease inhibitors: sulfonamide-containing 4-hydroxycoumarins and 4-hydroxy-2-pyrones as potent non-peptidic inhibitors” (J Med Chem, 1996).

In general, IC90 refers to the concentration needed for an effect of 90%. A lower IC90 goes with an effect from little substance. Usually Ki stands for a dissociation constant, usually derived from enzyme kinetics or from competition with a known ligand. Low readings indicate a stronger hold on the target, high ones a looser hold on the target.

The target in assay [1] is Human immunodeficiency virus type 1 protease (Human immunodeficiency virus 1) (UniProt Q72874).
Description: Inhibitory concentration for antiviral activity against MT-4/HIV-1IIIB cell culture
For assay [2], the target named is T1, Human immunodeficiency virus type 1 protease (Human immunodeficiency virus 1, UniProt Q72874). Put plainly: Binding affinity against HIV-1 protease.
Assay [3] deals with T1, Human immunodeficiency virus type 1 protease. Kind of assay: Binding affinity towards HIV protease.

The compound `CCC(Cc1ccccc1)c1cc(O)c(C(c2cccc(NS(=O)(=O)c3cn(C)cn3)c2)C2CC2)c(=O)o1` (single isomer, unassigned; diastereomer 1) [listing 1 of 2 here] showed an IC90 in assay [1] of 4500 nM.
In turn, `CCC(Cc1ccccc1)c1cc(O)c(C(c2cccc(NS(=O)(=O)c3ccc(OC)cc3)c2)C2CC2)c(=O)o1` (stereo not given) came in with a Ki in assay [2] of 22 nM. Further, the IC90 in assay [1] worked out at 7600 nM.
Take `CCC(Cc1ccccc1)c1cc(O)c(C(c2cccc(NS(=O)(=O)c3cn(C)cn3)c2)C2CC2)c(=O)o1` (single isomer, unassigned; diastereomer 3) [listing 1 of 2 here]: in assay [1], the IC90 was determined as 6800 nM.
`CCC(Cc1ccccc1)c1cc(O)c(C(c2cccc(NS(=O)(=O)c3cn(C)cn3)c2)C2CC2)c(=O)o1` (mixture of isomers) [listing 1 of 2 here] had a Ki in assay [2] of 1.3 nM.
In assay [2], `CCC(Cc1ccccc1)c1cc(O)c(C(c2cccc(NS(=O)(=O)c3cccc4cccnc34)c2)C2CC2)c(=O)o1` (stereo not given) gave a Ki of 3.5 nM. Moreover, it took 6000 nM to reach the 90% level in assay [1] (IC90).
For `CCC(Cc1ccccc1)c1cc(O)c(C(c2cccc(NS(=O)(=O)c3ccc(C#N)cc3)c2)C2CC2)c(=O)o1` (stereo not given), the affinity in assay [2], expressed as Ki, was 5.7 nM. Moreover, it took 9900 nM to reach the 90% level in assay [1] (IC90).
In turn, `CCC(Cc1ccccc1)c1cc(O)c(C(c2cccc(NS(=O)(=O)c3cn(C)cn3)c2)C2CC2)c(=O)o1` (single isomer, unassigned; diastereomer 2) [listing 1 of 2 here] gave an IC90 in assay [1] of 5700 nM.
In the case of `Cn1cnc(S(=O)(=O)Nc2cccc(C(c3c(O)cc(C(CC4CC4)CC4CC4)oc3=O)C3CC3)c2)c1` (single isomer, unassigned; enantiomer 1), in assay [1], the IC90 was found to be 10400 nM.
With `O=c1cc(C(CC2CC2)CC2CC2)oc(O)c1C(c1cccc(NS(=O)(=O)c2cccc3cccnc23)c1)C1CC1` (stereo not given), the Ki in assay [2] amounted to 5.3 nM. The same compound showed an IC90 in assay [1] of 6500 nM.
`CCC(Cc1ccccc1)c1cc(O)c(C(c2cccc(NS(=O)(=O)c3cn(C)cn3)c2)C2CC2)c(=O)o1` (single isomer, unassigned; diastereomer 4) [listing 1 of 2 here]: in assay [1], the IC90 stood at 6000 nM.
Turning to `CCC(Cc1ccccc1)c1cc(O)c(C(c2cccc(NS(=O)(=O)c3cn(C)cn3)c2)C2CC2)c(=O)o1` (single isomer, unassigned; diastereomer 1) [listing 2 of 2 here], affinity in assay [2] was put at a Ki of 0.52 nM.
Turning to `CCC(Cc1ccccc1)c1cc(O)c(C(c2cccc(NC(=O)C(Cc3c[nH]cn3)NC(=O)OC(C)(C)C)c2)C2CC2)c(=O)o1` (stereo not given), affinity in assay [3] was put at a Ki of 4 nM.
Regarding `CCC(Cc1ccccc1)c1cc(O)c(C(c2cccc(NS(=O)(=O)c3cn(C)cn3)c2)C2CC2)c(=O)o1` (single isomer, unassigned; diastereomer 4) [listing 2 of 2 here], the Ki in assay [2] was 1.4 nM.
`CCC(Cc1ccccc1)c1cc(O)c(C(c2cccc(NS(=O)(=O)c3cccnc3)c2)C2CC2)c(=O)o1` (stereo not given) gave a Ki in assay [2] of 12 nM. The IC90 in assay [1] stood at 28700 nM.
The like results for `CCCS(=O)(=O)Nc1cccc(C(c2c(O)cc(C(CC)Cc3ccccc3)oc2=O)C2CC2)c1` (stereo not given) were, in that order, 40 nM and 11100 nM.
As to `CCC(Cc1ccccc1)c1cc(O)c(C(c2cccc(NS(=O)(=O)c3cn(C)cn3)c2)C2CC2)c(=O)o1` (single isomer, unassigned; diastereomer 2) [listing 2 of 2 here], the Ki in assay [2] worked out at 0.73 nM.
For `Cn1cnc(S(=O)(=O)Nc2cccc(C(c3c(O)cc(C(CC4CC4)CC4CC4)oc3=O)C3CC3)c2)c1` (single isomer, unassigned; enantiomer 2), the IC90 in assay [1] was determined as 6900 nM.
Compound `CCC(CC)c1cc(O)c(C(c2cccc(NS(=O)(=O)c3cn(C)cn3)c2)C2CC2)c(=O)o1` (stereo not given) had a Ki in assay [2] of 0.54 nM.
In turn, `CCC(Cc1ccccc1)c1cc(O)c(C(c2cccc(NS(=O)(=O)c3ccc(Cl)cc3)c2)C2CC2)c(=O)o1` (stereo not given) displayed a Ki in assay [2] of 15 nM. In assay [1], this compound gave an IC90 of 6200 nM.
In assay [2], `COc1ccc2c(O)c(C(c3cccc(NS(=O)(=O)c4ccc(F)cc4)c3)C3CC3)c(=O)oc2c1` (stereo not given) yielded a Ki of 7.7 nM.
For `COc1ccc2c(O)c(C(c3cccc(NS(=O)(=O)c4cccc5cccnc45)c3)C3CC3)c(=O)oc2c1` (stereo not given), in assay [2], the Ki stood at 4.9 nM.
`Cn1cnc(S(=O)(=O)Nc2cccc(C(c3c(O)cc(C(CC4CC4)CC4CC4)oc3=O)C3CC3)c2)c1` (racemic) showed an IC90 in assay [1] of 4600 nM.
`Cc1cc(O)c(C(c2cccc(NS(=O)(=O)c3cn(C)cn3)c2)C2CC2)c(=O)o1` (stereo not given): the Ki in assay [2] was determined as 14 nM.
For the compound `Cn1cnc(S(=O)(=O)Nc2cccc(C(c3c(O)cc(CCc4ccccc4)oc3=O)C3CC3)c2)c1` (stereo not given), in assay [2], the Ki stood at 0.97 nM.
Still for that read-out and setting: the same measure for `CCC(Cc1ccccc1)c1cc(O)c(C(c2cccc(NS(=O)(=O)c3cn(C)cn3)c2)C2CC2)c(=O)o1` (single isomer, unassigned; diastereomer 3) [listing 2 of 2 here]: 1.9 nM.
In assay [1], `CCC(Cc1ccccc1)c1cc(O)c(C(c2cccc(NS(=O)(=O)c3cn(C)cn3)c2)C2CC2)c(=O)o1` (mixture of isomers) [listing 2 of 2 here] had an IC90 of 4100 nM.
As to `CCC(c1cccc(NC(=O)CCNC2C=Cc3ccccc32)c1)c1c(O)oc2ccccc2c1=O` (stereo not given), the affinity in assay [3] corresponds to a Ki of 110 nM.
As for `CCC(Cc1ccccc1)c1cc(O)c(C(c2cccc(NC(=O)Cc3cccnc3)c2)C2CC2)c(=O)o1` (stereo not given), the affinity in assay [3] corresponds to a Ki of 44 nM.
Regarding `CCC(CCOCCOC)c1cc(O)c(C(c2cccc(NS(=O)(=O)c3cn(C)cn3)c2)C2CC2)c(=O)o1` (stereo not given), affinity in assay [2] was put at a Ki of 0.88 nM.
Turning to `CCC(CC1CCOCC1)c1cc(O)c(C(c2cccc(NS(=O)(=O)c3cn(C)cn3)c2)C2CC2)c(=O)o1` (stereo not given), in assay [2], the Ki was determined as 0.48 nM.
In turn, `COCCOCCCc1cc(O)c(C(c2cccc(NS(=O)(=O)c3cn(C)cn3)c2)C2CC2)c(=O)o1` (stereo not given) registered a Ki in assay [2] of 1.6 nM.
In turn, `O=c1cc(C(CC2CC2)CC2CC2)oc(O)c1C(c1cccc(NS(=O)(=O)c2ccccc2)c1)C1CC1` (stereo not given) showed a Ki in assay [2] of 23 nM. In assay [1], this compound returned an IC90 of 12100 nM.
As for `O=c1cc(C(CC2CC2)CC2CC2)oc(O)c1C(c1cccc(NS(=O)(=O)c2ccc(F)cc2)c1)C1CC1` (stereo not given), the Ki in assay [2] was found to be 16 nM. The 90% effect level in assay [1] (IC90) was put at 8000 nM.
For the compound `COc1ccc2c(O)c(C(c3cccc(NS(=O)(=O)c4ccc(C#N)cc4)c3)C3CC3)c(=O)oc2c1` (stereo not given), in assay [2], the Ki worked out at 5.8 nM.
Compound `N#Cc1ccc(S(=O)(=O)Nc2cccc(C(c3c(O)oc(C(CC4CC4)CC4CC4)cc3=O)C3CC3)c2)cc1` (stereo not given) gave a Ki in assay [2] of 5.4 nM. Besides, the IC90 in assay [1] stood at 8900 nM.
`COCCOCCC(CCOCCOC)c1cc(O)c(C(c2cccc(NS(=O)(=O)c3cn(C)cn3)c2)C2CC2)c(=O)o1` (stereo not given) showed a Ki in assay [2] of 4.2 nM.
For `COc1ccc2c(O)c(C(c3cccc(NS(=O)(=O)c4cn(C)cn4)c3)C3CC3)c(=O)oc2c1` (stereo not given), in assay [2], the Ki turned out to be 0.7 nM.
`CCC(Cc1ccccc1)c1cc(O)c(C(c2cccc(NS(=O)(=O)c3ccccc3)c2)C2CC2)c(=O)o1` (stereo not given) yielded a Ki in assay [2] of 17 nM. The IC90 in assay [1] worked out at 7600 nM.
Take `COc1c(C(O)c2ccccc2)c(=O)oc2ccccc12` (stereo not given): in assay [3], the Ki worked out at 1 nM.
